This passage reports GI50 and TGI results from PubChem BioAssay (NCI).

Test systems include CAKI-1 renal; U251 CNS; SN12C renal; SF-268 CNS; HCT-116 colon; EKVX NSCLC; CCRF-CEM leukemia; SK-MEL-2 melanoma; UO-31 renal.
What all share (test): growth of human tumour cells (NCI), 48 h

Each structure is given as a SMILES string. Several values for one entry are separate records, joined by “and”; a condition that tells them apart may be missing. Equal entries are not always repeated.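 These data come from cells grown in 96-well plates and exposed to compound for 48 hours at five concentrations. GI50: concentration for 50% inhibition of growth. TGI: total growth inhibition.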 A value given as a limit tells only on which side of the number the result lay.

In the case of `O=C(O)c1c(Cl)c(Cl)c(Cl)c(Cl)c1-c1c2cc(I)c(=O)c(I)c-2oc2c(I)c(O)c(I)cc12`, the GI50 in the experiment with CAKI-1 renal is 39 µM; with U251 CNS, 26.3 µM and 35.1 µM; in the experiment with SN12C renal it was 75.5 µM and 32.6 µM; in the experiment on SF-268 CNS it was 41.3 µM and 36.8 µM; in the experiment on HCT-116 colon, 45.4 µM and 37.2 µM; in the experiment on EKVX NSCLC, 63.5 µM. For the same compound, the GI50 in the experiment on CCRF-CEM leukemia was 30.2 µM and 41.9 µM; in the experiment on SK-MEL-2 melanoma, 81.4 µM and 37 µM; in the experiment with UO-31 renal, 43.5 µM. Further, the TGI in the experiment on CAKI-1 renal is 86.7 µM; in the experiment with U251 CNS it was 83.9 µM; with SN12C renal it was 103 µM; in the experiment with SF-268 CNS, 81.2 µM; in the experiment on HCT-116 colon it was 81.5 µM; in the experiment with EKVX NSCLC, over 200 µM. The TGI in the experiment on CCRF-CEM leukemia came out at 95.7 µM; in the experiment on SK-MEL-2 melanoma it was 78.8 µM; in the experiment with UO-31 renal, 107 µM.

With `CC(=O)OCC1OC(O[C@@H]2C[C@H]3C(C)(C)[C@H](OC(C)=O)CC[C@]3(C)[C@H]3CC[C@@H]4[C@]5(CC[C@@]4(C)[C@@]32C)O[C@@H]([C@H](O)C(C)(C)O)C[C@@H]5C)C(O)C(O)C1O` (stereo partly drawn), the TGI with CAKI-1 renal stood at 13.5 µM; with U251 CNS it was 19.1 µM; in the experiment on SN12C renal it was 24 µM; in the experiment with SF-268 CNS it was 23.7 µM; in the experiment on HCT-116 colon it was 15.1 µM; in the experiment with EKVX NSCLC, 28.5 µM. Besides, the figures for the TGI in the experiment on CCRF-CEM leukemia, in the experiment with SK-MEL-2 melanoma and in the experiment on UO-31 renal were 20 µM, 19.7 µM and 20.8 µM, respectively. Also, the GI50 was 11.1 µM in the experiment on SN12C renal; 9.34 µM in the experiment on SF-268 CNS; 3.81 µM in the experiment with HCT-116 colon; 9.52 µM in the experiment with EKVX NSCLC; 3.16 µM in the experiment on CCRF-CEM leukemia; 6.04 µM in the experiment on SK-MEL-2 melanoma. Besides, the GI50 in the experiment on UO-31 renal is 7.85 µM.

As to `C=C(C)[C@@H]1CC[C@]2(C#N)CC[C@]3(C)[C@H](CC[C@@H]4[C@@]5(C)CCCNC(C)(C)[C@@H]5CC[C@]43C)[C@@H]12`, the GI50 is 3.2 µM in the experiment on CAKI-1 renal; 1.75 µM with U251 CNS; 1.77 µM in the experiment on SN12C renal; 3.11 µM in the experiment on SF-268 CNS; 1.75 µM with HCT-116 colon; 1.79 µM in the experiment on EKVX NSCLC. For the same compound, the results for the GI50 in the experiment with CCRF-CEM leukemia, in the experiment on SK-MEL-2 melanoma and in the experiment on UO-31 renal were 2.73 µM, 2.1 µM and 2.41 µM, respectively. The TGI with CAKI-1 renal was found to be 11.5 µM; with U251 CNS it was 3.13 µM; with SN12C renal it was 3.25 µM; in the experiment with SF-268 CNS, 10.4 µM; in the experiment on HCT-116 colon, 3.19 µM; in the experiment with EKVX NSCLC, 3.83 µM. For the same compound, the TGI was 9.38 µM in the experiment with CCRF-CEM leukemia, 3.94 µM in the experiment with SK-MEL-2 melanoma and 7.92 µM with UO-31 renal.

Take `O=C1CCC(c2ccccc2)(c2ccccc2)CC1`: the TGI in the experiment on CAKI-1 renal, with U251 CNS, in the experiment on SN12C renal, with SF-268 CNS, in the experiment with HCT-116 colon and in the experiment on EKVX NSCLC was over 100 µM each time. The TGI in the experiment with CCRF-CEM leukemia is 52 µM; in the experiment with SK-MEL-2 melanoma it was over 100 µM; with UO-31 renal it was over 100 µM.

Take `COc1cc(C(=O)c2c(-c3ccccc3)oc3ccccc23)cc(OC)c1O`: the GI50 with CAKI-1 renal is 0.766 µM; in the experiment on U251 CNS, 3.21 µM; with SN12C renal it was 5.23 µM; with SF-268 CNS, 3.4 µM; with HCT-116 colon, 1.04 µM; in the experiment with EKVX NSCLC, 3.85 µM. In addition, the results for the GI50 in the experiment on CCRF-CEM leukemia, in the experiment with SK-MEL-2 melanoma and in the experiment with UO-31 renal were 1.71 µM, 6.78 µM and 3.14 µM, respectively. For the same compound, the TGI in the experiment on CAKI-1 renal is 16 µM; with U251 CNS it was 16.1 µM; in the experiment with SN12C renal, 26.3 µM; in the experiment with SF-268 CNS, 18.6 µM; in the experiment on HCT-116 colon it was 12.5 µM; in the experiment with EKVX NSCLC, 58.2 µM. The figures for the TGI in the experiment with CCRF-CEM leukemia, in the experiment with SK-MEL-2 melanoma and in the experiment on UO-31 renal were 14.3 µM, 29.2 µM and 19.4 µM, respectively.

For the compound `NC(=NC1C2CC3CC(C2)CC1C3)Nc1ccc(I)cc1` (stereo not drawn), the GI50 in the experiment with CAKI-1 renal was 3.29 µM; in the experiment with U251 CNS, 3.42 µM; in the experiment on SN12C renal it was 3.82 µM; in the experiment on SF-268 CNS, 4.52 µM; in the experiment with HCT-116 colon, 3.11 µM; in the experiment with EKVX NSCLC, 3.43 µM. The GI50 in the experiment on CCRF-CEM leukemia is 3.43 µM; in the experiment on SK-MEL-2 melanoma, 2.63 µM; with UO-31 renal, 2.67 µM. Besides, the TGI was 13.1 µM in the experiment with CAKI-1 renal; 12.6 µM in the experiment on U251 CNS; 14.6 µM with SN12C renal; 17.8 µM with SF-268 CNS; 10.4 µM with HCT-116 colon; 14.3 µM with EKVX NSCLC. In addition, the TGI in the experiment on CCRF-CEM leukemia was over 100 µM; with SK-MEL-2 melanoma it was 7.62 µM; in the experiment with UO-31 renal it was 12.8 µM.

For `CC1=CC(=O)c2[nH]c3ccccc3c2C1=O`, the GI50 in the experiment with CAKI-1 renal was 14.4 µM; in the experiment on U251 CNS, 15.4 µM; with SN12C renal it was 4.59 µM; with SF-268 CNS, 4.36 µM; with HCT-116 colon, 4.44 µM; in the experiment with EKVX NSCLC, 4.04 µM. Besides, the GI50 in the experiment on CCRF-CEM leukemia is 3.33 µM; with SK-MEL-2 melanoma, 5.37 µM; in the experiment on UO-31 renal, 4 µM. The TGI in the experiment on CAKI-1 renal is over 25 µM; in the experiment with U251 CNS, over 25 µM; in the experiment on SN12C renal it was 8.17 µM; in the experiment on SF-268 CNS, 7.89 µM; with HCT-116 colon, 7.93 µM; in the experiment with EKVX NSCLC it was 8.48 µM. The TGI in the experiment with CCRF-CEM leukemia came out at 10.6 µM; with SK-MEL-2 melanoma, 13.8 µM; in the experiment with UO-31 renal it was 7.4 µM.

As for `COc1cc([N+](=O)[O-])c2ncccc2c1O`, the GI50 in the experiment with CAKI-1 renal is 4.84 µM; in the experiment on U251 CNS, 3.2 µM; with SN12C renal, 3.06 µM; with SF-268 CNS, 9.79 µM; in the experiment on HCT-116 colon, 4.26 µM; in the experiment on EKVX NSCLC it was 18.8 µM. Further, the GI50 with CCRF-CEM leukemia is 95.2 µM; with SK-MEL-2 melanoma, 9.91 µM; in the experiment with UO-31 renal it was 2.05 µM. In addition, the TGI in the experiment on CAKI-1 renal was 30.9 µM; in the experiment on U251 CNS, over 100 µM; in the experiment on SN12C renal, over 100 µM; in the experiment with SF-268 CNS it was 67.1 µM; with HCT-116 colon, 82.6 µM; in the experiment with EKVX NSCLC, 78.1 µM. The TGI in the experiment on CCRF-CEM leukemia is over 100 µM; in the experiment with SK-MEL-2 melanoma, 52.4 µM; in the experiment with UO-31 renal it was 10.4 µM.
